# Test results reported in patent US6333337A, “Potassium channel inhibitors” (ICAgen, Inc., priority 1999, dated 2001).
# Experiments:
# Kv1.5 potassium channel = biological target: T1, Kv1.5 potassium channel (Homo sapiens, UniProt P22460); assay: Electrophysiological studies, whole cell patch clamp, inhibition of Kv1.5 potassium currents in Chinese hamster ovary cells; type: cell-based; settings: CHO cells
# T1 construct: expressed in transfected cells
# Protocol: Electrophysiological recordings of potassium currents in Chinese hamster ovary cells stably expressing the gene construct for the Kv1.5 potassium channel subunit were performed using the whole cell configuration of the patch clamp technique (Hamill et al., Pflugers Archiv 391:85, 1981). Cell lines expressing Kv1.5 were prepared using standard techniques known to those skilled in the art. Cells were plated on glass coverslips at a density of 2×10^4 cells/coverslip and used within 24-48 hours. Solutions used for electrophysiological recordings were as follows. Extracellular bathing solutions contained (in mM) 132 NaCl, 5.4 KCl, 1.8 CaCl2, 0.8 MgCl2, 10 HEPES, 5 glucose at pH 7.3. Electrode pipette solutions for measuring Kv1.5 contain (in mM) 100 KCl 5 NaCl, 2 MgCl2, 5 mM EGTA, 10 mM HEPES and 5 glucose at pH 7.4, 295 mOsm. The coverslips were placed in a small chamber (volume ~200 μl) on the mechanical stage of an inverted microscope and perfused (2 ml/min) with extracellular recording solution. Drug was applied using a series of narrow-bore glass capillary tubes (inner diameter ~100 μm) positioned approximately 200 μm from the cell.
# human Kv1.5 = biological target: T2, human Kv1.5 (Homo sapiens, UniProt P22460); assay: 86Rb efflux assay, inhibition of 86Rb efflux through Kv1.5 potassium channels expressed in CHO cells; type: cell-based; settings: Kv1.5 in CHO cells, 70 mM KCl, 1 minute
# T2 construct: expressed in transfected cells
# Protocol: Cells stably transfected with cDNA for human Kv1.5 (in pcDNA3 vector) were grown as confluent monolayers in 96 well tissue culture plates in MEM alpha with 10% heat inactivated fetal bovine serum and 400 μg/ml G418. Cells were incubated overnight in growth media containing 1 μCi/ml ^86 Rb to permit intracellular uptake of the isotope. At the end of the incubation period, the ^86 Rb solution was aspirated and the cells washed three times with Earls Balanced Salt Solution (EBSS) which contained (in mM) 132 NaCl 5.4 KCl, 1.8 CaCl2, 0.8 mM MgCl2 10 mM HEPES and 5 mM glucose. The cells were then preincubated for 10 minutes at room temperature in 100 μl/well of EBSS or EBSS containing test compounds. At the end of this period the wells were aspirated and to each well was then added 100 μl of a modified EBSS solution containing 70 mM KCl (NaCl replaced by KCl) and the compound to be tested. The high KCl concentration was utilized to depolarize the cells to membrane potentials that would activate Kv1.5 channels. After a 1 minute incubation in 70 mM KCl EBSS plus test compound, the solution was removed and placed into the appropriate well of a 96 well counting plate for analysis. Finally 100 μl of 0.1% sodium docecyl sulfate in EBSS was added to each well to lyse the cells. The lysate was taken for analysis to determine final cell content of ^86 Rb. Samples were counted in a Wallac Microbeta liquid scintillation counter by Cerenkov emission. Efflux was expressed as a percentage of the initial cell content of ^86 Rb.
# The testing results of selective compounds from Tables 1A-C using this assay are reported in Table 2 (flux) as the potency for inhibition of ^86 Rb efflux through Kv1.5 potassium channels expressed in CHO cells by compounds of the invention.
# T1 sequence (P22460 whole entry): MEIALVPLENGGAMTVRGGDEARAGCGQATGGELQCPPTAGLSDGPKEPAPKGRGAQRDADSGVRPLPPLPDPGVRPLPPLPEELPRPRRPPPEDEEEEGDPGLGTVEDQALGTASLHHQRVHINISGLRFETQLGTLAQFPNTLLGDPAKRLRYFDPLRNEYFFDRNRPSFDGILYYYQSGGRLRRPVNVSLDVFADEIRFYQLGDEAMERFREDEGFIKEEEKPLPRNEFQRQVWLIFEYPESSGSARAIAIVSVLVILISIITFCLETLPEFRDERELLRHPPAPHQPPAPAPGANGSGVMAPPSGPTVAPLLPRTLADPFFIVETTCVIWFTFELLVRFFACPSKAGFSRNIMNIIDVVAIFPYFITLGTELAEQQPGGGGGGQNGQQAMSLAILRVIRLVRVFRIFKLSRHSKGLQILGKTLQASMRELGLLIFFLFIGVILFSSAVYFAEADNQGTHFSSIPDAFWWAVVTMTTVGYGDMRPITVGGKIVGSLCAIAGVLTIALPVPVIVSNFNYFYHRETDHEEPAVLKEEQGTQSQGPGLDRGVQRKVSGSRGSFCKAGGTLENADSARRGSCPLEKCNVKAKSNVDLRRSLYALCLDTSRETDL
# T2 sequence (P22460 whole entry): as above
IC50 (Kv1.5 potassium channel),IC50 (human Kv1.5),SMILES
–,20000 nM,CCc1ccc(S(=O)(=O)NC2c3cc(NC(=O)c4cccs4)ccc3CCC2O)cc1 (stereo not drawn) [Entry 103]
–,46000 nM,CCCc1ccc(S(=O)(=O)NC2c3cc(NC(=O)c4ccc([N+](=O)[O-])cc4)ccc3CCC2O)cc1 (stereo not drawn) [Entry 85]
50 nM,2900 nM,CCCCc1ccc(S(=O)(=O)NC2c3cc(NC(=O)c4cccc(OC)c4)ccc3CCC2O)cc1 (stereo not drawn) [Entry 19]
–,9000 nM,CCc1ccc(C(=O)Nc2ccc3c(c2)C(NS(=O)(=O)c2ccc(C(C)C)cc2)C(O)CC3)cc1 (stereo not drawn) [Entry 40]
600 nM,–,CCc1ccc(S(=O)(=O)NC2c3cc(NC(=O)c4cccc(OC)c4)ccc3CCC2O)cc1 (stereo not drawn) [Entry 158]
250 nM,6800 nM,CCc1ccc(S(=O)(=O)NC2c3cc(NC(=O)c4cccc(OC)c4)ccc3CCC2O)cc1 (stereo not drawn) [Entry 1]

# The remaining lines, values behind:
SMILES,IC50 (Kv1.5 potassium channel),IC50 (human Kv1.5)
CCc1ccc(S(=O)(=O)NC2c3cc(N(Cc4cccnc4)C(=O)C4CC4)ccc3CCC2O)cc1 (stereo not drawn) [Entry 162],200 nM,–
COc1cccc(C(=O)Nc2ccc3c(c2)C(NS(=O)(=O)Cc2ccccc2)C(O)CC3)c1 (stereo not drawn) [Entry 70],2100 nM,29000 nM
CCc1ccc(S(=O)(=O)NC2c3cc(NC(=O)C4CCCN4Cc4cccc(Cl)c4)ccc3CCC2O)cc1 (stereo not drawn) [Entry 135],100 nM,–
"CCc1ccc(S(=O)(=O)N[C@H]2c3cc(NCc4ccc(OC(F)(F)F)cc4)ccc3CC[C@@H]2O)cc1 (relative stereo) [Entry 60, trans-N1-(4-ethylphenylsulfonyl)-N7-(4-trifluoromethoxybenzyl)-1,7-diamino-1,2,3,4-tetrahydro-2-naphthalenol]",500 nM,> 50000 nM
CCc1ccc(S(=O)(=O)NC2c3cc(N(Cc4cccnc4)C(=O)C4CC4)ccc3CCC2O)cc1 (stereo not drawn) [Entry 123],100 nM,–
CCc1ccc(S(=O)(=O)N(Cc2cccnc2)C2c3cc(NC(=O)c4cccc(OC)c4)ccc3CCC2O)cc1 (stereo not drawn) [Entry 132],500 nM,–
COc1cc(C)c(S(=O)(=O)NC2c3cc(NC(=O)c4ccccc4)ccc3CCC2O)c(C)c1C (stereo not drawn) [Entry 110],–,12000 nM
CCc1ccc(S(=O)(=O)NC2c3cc(NC(=O)C4Cc5ccccc5CN4CC)ccc3CCC2O)cc1 (stereo not drawn) [Entry 24],600 nM,5900 nM
CCc1ccc(S(=O)(=O)NC2c3cc(NC(=O)C#Cc4ccccc4)ccc3CCC2O)cc1 (stereo not drawn) [Entry 28],90 nM,5900 nM
CCc1ccc(S(=O)(=O)NC2c3cc(NC(=O)c4ccccc4OC)ccc3CCC2O)cc1 (stereo not drawn) [Entry 13],400 nM,> 50000 nM
Cc1cccc(C(=O)Nc2ccc3c(c2)C(NS(=O)(=O)c2cccc(C)c2)C(O)CC3)c1 (stereo not drawn) [Entry 97],–,39000 nM
